Test results as given in ChEMBL document CHEMBL1130559, “The synthesis and antitumor evaluation of unsymmetrical bis-imides” (Bioorg Med Chem Lett, 1997).

Experiments:
Mus musculus [1] = test: Compound was evaluated in vivo for the percent tumor growth inhibition against human solid tumors implanted in nude mice LX-1 (lung), iv; assay type: functional
Mus musculus [2] = test: Compound was evaluated in vivo for the percent tumor growth inhibition against human solid tumors implanted in nude mice DLD-2 (colon), iv; assay type: functional
L1210 = test: In vitro 50% inhibitory activity against L1210 murine leukemia; assay type: functional, cell-based; conditions: Mus musculus
Mus musculus [3] = test: Compound was evaluated in vivo for the maximum tolerated dose against the following human solid tumors implanted in nude miceMX-1 (breast); assay type: functional
Nucleic Acid [4] = test: In vitro DNA poly-dAdT binding by ethidium bromide displacement; assay type: nucleic-acid assay
Nucleic Acid [5] = test: In vitro DNA poly-dGdC binding by ethidium bromide displacement; assay type: nucleic-acid assay
[6] = Solubility in water; assay type: physicochemical; conditions: read-out: S
Mus musculus [7] = test: Compound was evaluated in vivo for the maximum tolerated dose against the following human solid tumors implanted in nude miceLX-1 (lung); assay type: functional
Mus musculus [8] = test: Compound was evaluated in vivo for the maximum tolerated dose against the following human solid tumors implanted in nude miceDLD-2 (colon); assay type: functional
Mus musculus [9] = test: Compound was evaluated in vivo for the maximum tolerated dose (MTD) against MX-1 (breast) human solid tumors implanted in nude mice; assay type: functional
Mus musculus [10] = test: Compound was evaluated in vivo for the percent tumor growth inhibition against human solid tumors implanted in nude mice MX-1 (breast), iv; assay type: functional
Mus musculus [11] = test: Compound was evaluated in vivo for the maximum tolerated dose against the following human solid tumors implanted in nude mice MX-1 (breast); assay type: functional
Mus musculus [12] = test: Compound was evaluated in vivo for the maximum tolerated dose against human solid tumors implanted in nude miceDLD-2 (colon); assay type: functional
Mus musculus [13] = test: Compound was evaluated in vivo for the maximum tolerated dose against human solid tumors implanted in nude mice MX-1 (breast); assay type: functional
Mus musculus [14] = test: Compound was evaluated in vivo for the maximum tolerated dose against human solid tumors implanted in nude miceLX-1 (lung); assay type: functional

`CS(=O)(=O)O.CS(=O)(=O)O.C[C@H](CNCCNC[C@@H](C)N1C(=O)c2cccc3c2c(cc2ccncc23)C1=O)N1C(=O)c2cccc3cc([N+](=O)[O-])cc(c23)C1=O` showed an Inhibition (Mus musculus [1]) of 94%, an Inhibition (Mus musculus [2]) of 99% and an IC50 (L1210) of 0.035 µM. For the same molecule, the MTD (Mus musculus [3]) was 6 mg/kg, the IC50 (Nucleic Acid [4]) was 1.2 µM and the IC50 (Nucleic Acid [5]) was 0.088 µM. For the same molecule, the solubility [6] was 65 mg/mL, the MTD (Mus musculus [7]) was 6 mg/kg and the MTD (Mus musculus [8]) was 6 mg/kg.

`CS(=O)(=O)O.CS(=O)(=O)O.C[C@H](CNCCNC[C@@H](C)N1C(=O)c2cccc3c2c(cc2cccnc23)C1=O)N1C(=O)c2cccc3cc([N+](=O)[O-])cc(c23)C1=O` showed an MTD (Mus musculus [9]) of 6.2 mg/kg, an IC50 (L1210) of 0.25 µM and an IC50 (Nucleic Acid [4]) of 1.08 µM. For the same molecule, the IC50 (Nucleic Acid [5]) was 0.073 µM and the solubility [6] was > 35.6 mg/mL.

With `C[C@H](CNCCNC[C@@H](C)N1C(=O)c2cccc3c2c(cc2ccc(C(F)(F)F)cc23)C1=O)N1C(=O)c2cccc3cc([N+](=O)[O-])cc(c23)C1=O` the IC50 (L1210) was 0.45 µM, the IC50 (Nucleic Acid [4]) was 2.55 µM and the IC50 (Nucleic Acid [5]) was 0.17 µM.

`C[C@H](CNCCNC[C@@H](C)N1C(=O)c2cc([N+](=O)[O-])cc3c2c(cc2ccncc23)C1=O)N1C(=O)c2cccc3cc([N+](=O)[O-])cc(c23)C1=O` gave an IC50 (L1210) of 0.051 µM, an IC50 (Nucleic Acid [4]) of 0.88 µM and an IC50 (Nucleic Acid [5]) of 0.062 µM.

With `CS(=O)(=O)O.CS(=O)(=O)O.C[C@H](CNCCNC[C@@H](C)N1C(=O)c2cccc3cc([N+](=O)[O-])cc(c23)C1=O)N1C(=O)c2cccc3cc([N+](=O)[O-])cc(c23)C1=O` [BISNAFIDE DIMESYLATE] the Inhibition (Mus musculus [1]) was 96%, the Inhibition (Mus musculus [10]) was >96% and the Inhibition (Mus musculus [2]) was 99%. The IC50 (L1210) was 0.034 µM, the IC50 (Nucleic Acid [4]) was 1 µM and the IC50 (Nucleic Acid [5]) was 0.04 µM. The solubility [6] was 3.5 mg/mL, the MTD (Mus musculus [11]) was 10 mg/kg and the MTD (Mus musculus [7]) was 10 mg/kg. For the same molecule, the MTD (Mus musculus [8]) was 10 mg/kg.

For `CS(=O)(=O)O.CS(=O)(=O)O.C[C@H](CNCCNC[C@@H](C)N1C(=O)c2ccc3c4c(ccc(c24)C1=O)CC3)N1C(=O)c2cccc3cc([N+](=O)[O-])cc(c23)C1=O`, the Inhibition (Mus musculus [1]) was 95%, the Inhibition (Mus musculus [10]) was 97% and the Inhibition (Mus musculus [2]) was 98%. It also gave an MTD (Mus musculus [12]) of 12.5 mg/kg, an IC50 (L1210) of 0.075 µM and an IC50 (Nucleic Acid [4]) of 1.57 µM. It also gave an IC50 (Nucleic Acid [5]) of 0.11 µM, a solubility [6] of 29 mg/mL and an MTD (Mus musculus [13]) of 12.5 mg/kg. The MTD (Mus musculus [14]) was 10 mg/kg.

In the case of `C[C@H](CNCCNC[C@@H](C)N1C(=O)c2cccc3c2c(cc2ccc(F)cc23)C1=O)N1C(=O)c2cccc3cc([N+](=O)[O-])cc(c23)C1=O`, the IC50 (L1210) is reported as 0.31 µM, the IC50 (Nucleic Acid [4]) is reported as 1.51 µM and the IC50 (Nucleic Acid [5]) is reported as 0.11 µM.

With `C[C@H](CNCCNC[C@@H](C)N1C(=O)c2cccc3c2c(cc2cc(F)cnc23)C1=O)N1C(=O)c2cccc3cc([N+](=O)[O-])cc(c23)C1=O` the IC50 (L1210) was 0.064 µM, the IC50 (Nucleic Acid [4]) was 1.42 µM and the IC50 (Nucleic Acid [5]) was 0.059 µM.

Molecule `C[C@H](CNCCNC[C@@H](C)N1C(=O)c2cccc3c2c(cc2ccccc23)C1=O)N1C(=O)c2cccc3cc([N+](=O)[O-])cc(c23)C1=O` has an IC50 (L1210) of 0.42 µM, an IC50 (Nucleic Acid [4]) of 1.02 µM and an IC50 (Nucleic Acid [5]) of 0.97 µM.

`CS(=O)(=O)O.CS(=O)(=O)O.Cc1cnc2c(c1)cc1c3c(cc([N+](=O)[O-])cc32)C(=O)N([C@H](C)CNCCNC[C@@H](C)N2C(=O)c3cccc4cc([N+](=O)[O-])cc(c34)C2=O)C1=O` gave an MTD (Mus musculus [9]) of 6 mg/kg, an IC50 (L1210) of 0.041 µM and an IC50 (Nucleic Acid [4]) of 0.61 µM. The IC50 (Nucleic Acid [5]) was 0.073 µM.

`COc1ccc2cc3c4c(cccc4c2c1)C(=O)N([C@H](C)CNCCNC[C@@H](C)N1C(=O)c2cccc4cc([N+](=O)[O-])cc(c24)C1=O)C3=O` gave an IC50 (L1210) of 0.25 µM, an IC50 (Nucleic Acid [4]) of 0.8 µM and an IC50 (Nucleic Acid [5]) of 0.13 µM.

`C[C@H](CNCCNC[C@@H](C)N1C(=O)c2cc([N+](=O)[O-])cc3c2c(cc2cccnc23)C1=O)N1C(=O)c2cccc3cc([N+](=O)[O-])cc(c23)C1=O` showed an IC50 (L1210) of 0.024 µM, an IC50 (Nucleic Acid [4]) of 1.57 µM and an IC50 (Nucleic Acid [5]) of 0.085 µM.
